# Patent US7671066B2, “Derivatives of 1-phenyl-2-pyridynyl alkylene alcohols as phosphodiesterase inhibitors” (Chiesi Farmaceutici S.p.A., priority 2006, dated 2010)
# Legend:
# [1] = test system: LPS-induced TNF-α release in peripheral blood mononuclear cells (PBMCs); assay: PDE4 inhibitory activity in the PBMCs assay (LPS-induced TNF-α release); format: cell-based; conditions: PBMC; human PBMCs, LPS 3 ng/ml, 18 h, TNF-α by ELISA; mean (95% confidence limits)
# Protocol: The assay, which is based on the known inhibitory activity exerted by PDE4 inhibitors on the lipopolyshaccarides (LPS)-induced tumour necrosis factor-alpha (TNF-α) release in peripheral blood mononuclear cells (PBMCs), was performed according to a method previously described (Hatzelmann A et al J. Pharmacol. Exp. Ther. 2001; 297:267-279; Draheim R et al J. Pharmacol. Exp. Ther. 2004; 308:555-563.
# Cryopreserved human PBMCs, (100 μl/well) were incubated in 96-well plates (10^5 cells/well), for 30 min, in the presence or absence (50 microl) of the test compounds whose concentrations ranged from 10^−12 M to 10^−6 M. Subsequently, LPS (3 ng/ml) was added.
# After 18 h incubation at 37° C. in a humidified incubator under an atmosphere of 95% air and 5% CO2, culture medium was collected and TNF-α measured by ELISA.
# The results, expressed as mean ±95% confidence limits of the molar concentration of the test compound producing 50% inhibition of LPS-induced TNF-α release (IC50) are reported in Table 1.
# The effects of the tested compounds were calculated as percentage of inhibition of TNF-α release, assuming LPS-induced TNF-α production in the absence of inhibitor compound as 100% and basal TNF-α production of PBMCs in the absence of LPS as 0%.
# [2] = test system: PDE4 enzyme; assay: PDE4 inhibitory activity in the cell free assay (cAMP disappearance, U937 cell supernatant); format: biochemical, human; conditions: 1.6 μM cAMP, 30 min at 30° C., mean (95% confidence limits)
# Protocol: The U937 human monocytic cell line was used as source of PDE4 enzyme. Cells were cultured, harvested and supernatant fraction prepared essentially as described in Torphy T J et al J. Pharmacol. Exp. Ther. 1992; 263:1195-1205.
# PDE4 activity was determined in cells supernatants by assaying cAMP disappearance from the incubation mixtures. 50 μl of cell supernatant were incubated at 30° C. for 30 minutes in a final volume of 200 μl in the presence of 1.6 μM cAMP with or without the test compound (50 μl).
# The concentration of the test compounds ranged between 10^−12 M and 10^−6 M. Reactions were stopped by heat inactivation (2.5 minutes at 100° C.) and residual cAMP was measured using an electro-chemiluminescence (ECL)-based immunoassay.
# The results, expressed as mean ±95% confidence limits of the molar concentration of the test compound producing 50% inhibition of cAMP disappearance (IC50) are reported in Table 1 of Example 38.
# Percentage of inhibition of PDE4 activity was calculated, assuming cAMP disappearance in the absence of inhibitors as 100% and cAMP disappearance in heat inactivated samples as 0%.
# [3] = molecular target: HPDE4; assay: Competition for high affinity HPDE4 ([H3]rolipram binding); conditions: 50% inhibition of the binding of [H3]rolipram
# Protocol: (§1) In the case of LPDE4, the IC50 is the molar concentration of the test compound producing 50% inhibition of cAMP disappearance, assessed as described in Cortijo J et al Br J Pharmacol 1993, 108: 562-568, while in the case of HPDE4, the IC50 is the molar concentration of the test compound producing 50% inhibition of the binding of [H^3]rolipram, assessed as described in Duplantier A J et al J Med Chem 1996; 39: 120-125.
# (§2) The affinity toward LPDE4 and HPDE4 was assessed as previously described respectively in Cortijo J et al Br J Pharmacol 1993, 108: 562-568 and Duplantier A J et al J Med Chem 1996; 39: 120-125.
# (§3) The concentration of the test compounds ranged between 10^−12 M and 10^−5 M.
# (§4) In the case of LPDE4, the IC50 is the molar concentration of the test compound producing 50% inhibition of cAMP disappearance, while in the case of HPDE4, the IC50 is the molar concentration of the test compound producing 50% inhibition of the binding of [H^3] rolipram.
# [4] = test system: LPDE4; assay: Inhibition of low affinity LPDE4 (cAMP disappearance); format: biochemical; conditions: for IC50: 50% inhibition of cAMP disappearance; for HPDE4/LPDE4: ratio of IC50 values
# Protocol: as §1, §2, §3, §4
# [5] = test system: bronchoalveolar lavage neutrophils; assay: LPS-induced acute pulmonary inflammation in rats (animal model of COPD), intratracheal administration; format: in vivo
# Protocol: The anti-inflammatory activity of a representative compound of the invention, e.g. CHF 5480 was evaluated after intratracheal (i.t.) administration according to the method described in Belvisi M G J Pharmacol Exp Ther 2005, 314: 568-574.
# CHF 5480 was tested by i.t. instillation 24 h and 1 h before exposure to LPS.
# [6] = Pulmonary and plasma levels after intratracheal administration; format: in vivo, rats
Compound,IC50 [2],IC50 [1],other results
"COc1ccc(/C(=C/c2c(Cl)cncc2Cl)OC(=O)C2(c3ccc(C)cc3)CC2)cc1OC [CHF 5557, 1-p-Tolyl-cyclopropanecarboxylic acid, (Z)-2-(3,5-dichloro-pyridin-4-yl)-1-(3,4-dimethoxy-phenyl)vinyl ester]",13.8 nM,10.1 nM,–
"COc1ccc(C(=O)Cc2c(Cl)cncc2Cl)cc1OC1CCCC1 [CHF 5400, 1-(3-cyclopentyloxy-4-methoxy-phenyl)-2-(3,5-dichloro-pyridin-4-yl)-ethanone, reference compound]",–,–,IC50 [3]: 0.61 nM; IC50 [4]: 0.94 nM; HPDE4/LPDE4 [4]: 1.5
"COc1ccc(/C(=C/c2c(Cl)cncc2Cl)OC(=O)[C@@H](C)c2ccc(CC(C)C)cc2)cc1OC [CHF 5480, 2-(S)-(4-Isobutyl-phenyl)-propionic acid, (Z)-2-(3,5-dichloro-pyridin-4-yl)-1-(3,4-dimethoxy-phenyl)vinyl ester]",17.9 nM,26 nM,"inhibition of bronchoalveolar lavage neutrophils ([5]; i.t. instillation 24 h and 1 h before LPS, doses 0.001 to 10 μmoles/kg): significant and dose-dependent inhibition; reduction of neutrophilia (maximal effect) ([5]; i.t., 1 μmole/kg dose): 60%; levels in plasma ([6]; i.t. administration, plasma): no detectable levels; MRT ([6]; rat, other: intratracheal (i.t.) instillation, lung, read-out: mean residence time in the lungs): 15.3 h"
"COc1ccc(C(=O)O/C(=C\c2c(Cl)cncc2Cl)c2ccc(OC)c(OC3CCCC3)c2)cc1OCc1ccccc1 [CHF 5528, 3-Benzyloxy-4-methoxy-benzoic acid, (Z)-1-(3-cyclopentyloxy-4-methoxy-phenyl)-2-(3,5-dichloro-pyridin-4-yl)vinyl ester]",7.3 nM,21.8 nM,–
"COc1ccc(C(=O)O/C(=C\c2c(Cl)cncc2Cl)c2ccc(OC)c(OC3CCCC3)c2)cc1OC [CHF 5532, 3,4-Dimethoxy-benzoic acid, (Z)-1-(3-cyclopentyloxy-4-methoxy-phenyl)-2-(3,5-dichloro-pyridin-4-yl)vinyl ester]",12.6 nM,2.2 nM,–
"COc1ccc(C(=O)O/C(=C\c2c(Cl)cncc2Cl)c2ccc(OC)c(OCC3CC3)c2)cc1OCC1CC1 [CHF 5546, 3-Cyclopropylmethoxy-4-methoxy-benzoic acid, (Z)-1-(3-cyclopropylmethoxy-4-methoxy-phenyl)-2-(3,5-dichloro-pyridin-4-yl)vinyl ester]",–,1 nM,–
"COc1ccc(/C(=C/c2c(Cl)cncc2Cl)OC(=O)c2ccc(OC(F)F)c(OCC3CC3)c2)cc1OC [CHF 5555, 3-Cyclopropylmethoxy-4-difluoromethoxy-benzoic acid, (Z)-2-(3,5-dichloro-pyridin-4-yl)-1-(3,4-dimethoxy-phenyl)vinyl ester]",6.1 nM,2 nM,–
"COc1ccc(C(=O)O/C(=C\c2c(Cl)cncc2Cl)c2ccc(OC(F)F)c(OCC3CC3)c2)cc1OC [CHF 5472, 3,4-Dimethoxy-benzoic acid, (Z)-1-(3-cyclopropylmethoxy-4-difluoromethoxy-phenyl)-2-(3,5-dichloro-pyridin-4-yl)vinyl ester]",4 nM,5.4 nM,–
"COc1ccc(/C(=C/c2c(Cl)cncc2Cl)OC(=O)c2ccccc2)cc1OC [CHF 5415, Benzoic acid, (Z)-2-(3,5-dichloro-pyridin-4-yl)-1-(3,4-dimethoxy-phenyl)vinyl ester]",5.7 nM,5.7 nM,–

# More lines, main results first:
IC50 [2],Compound,IC50 [1],other results
0.7 nM,"COc1ccc(/C(=C/c2c(Cl)cncc2Cl)OC(=O)c2ccc(NS(C)(=O)=O)cc2)cc1OC [CHF 5526, 4-Methanesulfonylamino-benzoic acid (Z)-2-(3,5-dichloro-pyridin-4-yl)-1-(3,4-dimethoxy-phenyl)vinyl ester]",3.77 nM,–
1 nM,"COc1ccc(C(=O)O/C(=C\c2c(Cl)cncc2Cl)c2ccc(OC)c(OC)c2)cc1 [CHF 5429, 4-Methoxy-benzoic acid, (Z)-2-(3,5-dichloro-pyridin-4-yl)-1-(3,4-dimethoxy-phenyl)vinyl ester]",5.6 nM,–
0.35 nM,"COc1ccc(/C(=C/c2c(Cl)cncc2Cl)OC(=O)c2ccc(NS(=O)(=O)c3ccc(C)cc3)cc2)cc1OC [CHF 5537, 4-(Toluene-4-sulfonylamino)-benzoic acid, (Z)-2-(3,5-dichloro-pyridin-4-yl)-1-(3,4-dimethoxy-phenyl)vinyl ester]",6.3 nM,–
0.37 nM,"COc1ccc(/C(=C/c2c(Cl)cncc2Cl)OC(=O)c2ccc(NS(=O)(=O)c3ccc(F)cc3)cc2)cc1OC [CHF 5533, 4-(4-Fluoro-benzenesulfonylamino)-benzoic acid, (Z)-2-(3,5-dichloro-pyridin-4-yl)-1-(3,4-dimethoxy-phenyl)vinyl ester]",3.1 nM,–
0.5 nM,"COc1ccc(/C(=C/c2c(Cl)cncc2Cl)OC(=O)c2ccc([N+](=O)[O-])cc2)cc1OC [CHF 5513, 4-Nitro-benzoic acid, (Z)-2-(3,5-dichloro-pyridin-4-yl)-1-(3,4-dimethoxy-phenyl)vinyl ester]",8.5 nM,–
1.7 nM,"COc1ccc(/C(=C/c2c(Cl)cncc2Cl)OC(=O)c2ccc(N)cc2)cc1OC [CHF 5530, 4-Amino-benzoic acid, (Z)-2-(3,5-dichloro-pyridin-4-yl)-1-(3,4-dimethoxy-phenyl)vinyl ester]",5.4 nM,–
1.3 nM,"COc1ccc(C(=O)O/C(=C\c2c(Cl)cncc2Cl)c2ccc(OC)c(OC3CCCC3)c2)cc1OC1CCCC1 [CHF 5408, 3-Cyclopentyloxy-4-methoxy-benzoic acid, (Z)-1-(3-cyclopentyloxy-4-methoxy-phenyl)-2-(3,5-dichloro-pyridin-4-yl)vinyl ester]",0.9 nM,IC50 [3]: 0.74 nM; IC50 [4]: 42.6 nM; HPDE4/LPDE4 [4]: 57.6
1.2 nM,"O=C(O/C(=C\c1c(Cl)cncc1Cl)c1ccc(OC(F)F)c(OCC2CC2)c1)c1ccc(OC(F)F)c(OCC2CC2)c1 [CHF 5514, 3-Cyclopropylmethoxy-4-difluoromethoxy-benzoic acid, (Z)-1-(3-cyclopropylmethoxy-4-difluoromethoxy-phenyl)-2-(3,5-dichloro-pyridin-4-yl)vinyl ester]",12.5 nM,–
